According to patent US20150105252A1, “SUBSTITUTED PYRAZOLES AS HERBICIDES” (E I DU PONT DE NEMOURS AND COMPANY, priority 2013, published 2015):

Key:
Italian ryegrass = assay: Test A preemergence; format: in vivo, Lolium multiflorum
How it was run: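 After sowing in a sand–loam mix, pots received compound preemergence by directed soil spray, or postemergence once plants reached the one- to two-leaf stage (2–10 cm). Formulation contained surfactant in a non-phytotoxic solvent. Injury was scored visually after ~10 greenhouse days, 0–100 scale.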

dallisgrass = assay: Test E preemergence; format: in vivo, Paspalum dilatatum; details: 21 days, scale 0 to 100
Text: (§1) Seeds of plant species selected from bermudagrass (Cynodon dactylon), Surinam grass (Brachiaria decumbens), crabgrass, large (large crabgrass, Digitaria sanguinalis), crabgrass, naked (naked crabgrass, Digitaria nuda), foxtail, green (green foxtail, Setaria viridis), johnsongrass (Sorghum halepense), kochia (Kochia scoparia), morningglory (pitted morningglory, Ipomoea lacunosa), nutsedge, purple (purple nutsedge, Cyperus rotundus), ragweed (common ragweed, Ambrosia elation), mustard, black (black mustard, Brassica nigra), guineagrass (Panicum maximum), dallisgrass (Paspalum dilatatum), barnyardgrass (Echinochloa crus-galli), sandbur (southern sandbur, Cenchrus echinatus), sowthistle (common sowthistle, Sonchus oleraceous), ryegrass, Italian (Italian ryegrass, Lolium multiflorum), signalgrass (broadleaf signalgrass, Brachiaria platyphylla), dayflower, VA (Virginia (VA) dayflower, Commelina virginica), bluegrass (annual bluegrass, Poa annua), quackgrass (Elytrigia repens), mallow (common mallow, Malva sylvestris), buckwheat, wild (wild buckwheat, Polygonum convolvulus), leafy spurge (Euphorbia esula), common chickweed (Stellaria media), wild poinsettia (Euphorbia heterophylla), pigweed, palmer (palmer pigweed, Amaranthus palmeri), and pigweed (redroot pigweed, Amaranthus retroflexus) were planted into a blend of loam soil and sand and treated preemergence with test chemicals formulated in a non-phytotoxic solvent mixture which included a surfactant.
(§2) Treated plants and controls were maintained in a greenhouse for 21 days, after which time all species were compared to controls and visually evaluated. Plant response ratings, summarized in Table E, are based on a scale of 0 to 100 where 0 is no effect and 100 is complete control. A dash (-) response means no test result.

nutsedge, purple = assay: Test E preemergence; format: in vivo, Cyperus rotundus; details: 21 days, scale 0 to 100
Text: as §1, §2

ryegrass, Italian = assay: Test D preemergence; format: in vivo, Lolium multiflorum; details: scale 0 to 100
Text: Seeds of plant species selected from bluegrass (annual bluegrass, Poa annua), blackgrass (Alopecurus myosuroides), canarygrass (littleseed canarygrass, Phalaris minor), chickweed (common chickweed, Stellaria media), galium (catchweed bedstraw, Galium aparine), bromegrass, downy (downy bromegrass, Bromus tectorum), field poppy (Papaver rhoeas), field violet (Viola arvensis), foxtail, green (green foxtail, Setaria viridis), deadnettle (henbit deadnettle, Lamium amplexicaule), ryegrass, Italian (Italian ryegrass, Lolium multiflorum), kochia (Kochia scoparia), lambsquarters (Chenopodium album), oilseed rape (Brassica napus), pigweed (redroot pigweed, Amaranthus retroflexus), chamomile (scentless chamomile, Matricaria inodora), speedwell (bird's-eye speedwell, Veronica persica), barley, spring (spring barley, Hordeum vulgare), wheat, spring (spring wheat, Triticum aestivum), buckwheat, wild (wild buckwheat, Polygonum convolvulus), mustard, wild (wild mustard, Sinapis arvensis), oat, wild (wild oat, Avena fatua), radish, wild (wild radish, Raphanus raphanistrum), windgrass (Apera spica-venti), Russian thistle (Salsola kali), barley, winter (winter barley, Hordeum vulgare), and wheat, winter (winter wheat, Triticum aestivum) were planted into a silt loam soil and treated preemergence with test chemicals formulated in a non-phytotoxic solvent mixture which included a surfactant.
At the same time, these species were planted in pots containing Redi-Earth® planting medium (Scotts Company, 14111 Scottslawn Road, Marysville, Ohio 43041) comprising spaghnum peat moss, vermiculite, wetting agent and starter nutrients and treated with postemergence applications of the test chemicals formulated in the same manner. Plants ranged in height from 2 to 18 cm (1- to 4-leaf stage). Treated plants and controls were maintained in a controlled growth environment for 14 to 21 days after which time all species were compared to controls and visually evaluated. Plant response ratings, summarized in Table D, are based on a scale of 0 to 100 where 0 is no effect and 100 is complete control. A dash (-) response means no test result.

[1] = 125 g ai/ha, visual injury, 0 to 100 scale, approx. 10 days
[2] = 500 g ai/ha, visual injury after approx. 10 days, 0 to 100 scale (0 no effect, 100 complete control)

SMILES	Italian Ryegrass plant response rating (Italian ryegrass; [2])	Plant response rating, Dallisgrass (dallisgrass; 16 g ai/ha)	Plant response rating, Dallisgrass (dallisgrass; 31 g ai/ha)	Plant response rating, Dallisgrass (dallisgrass; 62 g ai/ha)	Plant response rating, Dallisgrass (dallisgrass; 125 g ai/ha)	Plant response rating, Dallisgrass (dallisgrass; 250 g ai/ha)	Plant response rating, Nutsedge, Purple (nutsedge, purple; 16 g ai/ha)	Plant response rating, Nutsedge, Purple (nutsedge, purple; 31 g ai/ha)	Plant response rating, Nutsedge, Purple (nutsedge, purple; 62 g ai/ha)	Plant response rating, Nutsedge, Purple (nutsedge, purple; 125 g ai/ha)	Plant response rating, Nutsedge, Purple (nutsedge, purple; 250 g ai/ha)	Plant response rating, Ryegrass, Italian (ryegrass, Italian; 62 g ai/ha)	Plant response rating, Ryegrass, Italian (ryegrass, Italian; 125 g ai/ha)	Plant response rating, Ryegrass, Italian (ryegrass, Italian; 250 g ai/ha)	also measured
CCOc1cc(C(=O)NC2CC2)nn1Cc1ccnc(OC(F)F)c1 [Compound 133]	90	–	–	–	–	–	–	–	–	–	–	–	–	–	Italian Ryegrass plant response rating (Italian ryegrass; [1]): 40
CCc1cc(C(=O)NCC(F)(F)F)nn1Cc1ccnc(C(F)(F)F)c1 [Compound 78, 5-ethyl-N-(2,2,2-trifluoroethyl)-1-[[(2-trifluoromethyl)-4-pyridinyl]methyl]-1H-pyrazole-3-carboxamide]	–	90	100	100	100	100	35	75	98	100	100	–	–	–	–
CCc1cc(C(=O)NC(C)C)nn1Cc1ccnc(C(F)(F)F)c1 [Compound 103]	–	90	100	100	100	100	15	75	90	98	100	–	–	–	–
CCCc1cc(C(=O)NCC(F)(F)F)nn1Cc1ccnc(C(F)(F)F)c1 [Compound 105]	–	20	95	100	100	100	40	70	85	85	95	–	–	–	–
CCOc1cc(C(=O)NCC(F)(F)F)nn1Cc1ccnc(C(F)(F)F)c1 [Compound 104]	–	95	98	100	100	100	35	80	90	98	100	–	–	–	–
CCCc1cc(C(=O)NCC(F)(F)F)nn1Cc1cc(C(F)(F)F)nn1C [Compound 138]	–	–	–	–	–	–	–	–	–	–	–	35	70	90	–
CCONC(=O)c1cc(CC)n(Cc2cc(C(F)(F)F)no2)n1 [Compound 125]	100	–	–	–	–	–	–	–	–	–	–	–	–	–	Italian Ryegrass plant response rating (Italian ryegrass; [1]): 20
CCc1cc(C(=O)NCC(F)(F)F)nn1Cc1cc(OC(F)F)nn1C [Compound 206]	20	–	–	–	–	–	–	–	–	–	–	–	–	–	Italian Ryegrass plant response rating (0 to 100 scale) (Italian ryegrass; 125 g ai/ha, visual injury approx. 10 days after treatment): 0
CCOc1cc(C(=O)NC(C)C)nn1Cc1ccnc(C(F)(F)F)c1 [Compound 188]	–	–	–	–	–	–	–	–	–	–	–	75	85	95	–
CCOc1cc(C(=O)NC2CC2)nn1Cc1ccnc(C(F)(F)F)c1 [Compound 189]	–	75	100	100	–	–	50	50	85	–	–	40	60	95	Plant response rating, Dallisgrass (dallisgrass; 4 g ai/ha): 0; Plant response rating, Dallisgrass (dallisgrass; 8 g ai/ha): 5; Plant response rating, Nutsedge, Purple (nutsedge, purple; 4 g ai/ha): 0; Plant response rating, Nutsedge, Purple (nutsedge, purple; 8 g ai/ha): 10
